Experiments:
[1] = target: T1, Cyclin-dependent kinase 5/CDK5 activator 1 (Homo sapiens, UniProt Q00535); experiment: Inhibition of human CDK5/p25 by HTRF assay; assay type: protein-complex assay
[2] = target: Mitogen-activated protein kinase 3 (Homo sapiens, UniProt P27361); experiment: Inhibition of human Erk1
[3] = Inhibition of human PKA
[4] = Inhibition of human His-tagged cyclin 2/CDK2 by HTRF assay
[5] = target: T1, Cyclin-dependent kinase 5/CDK5 activator 1; experiment: Inhibition of human His-tagged p25/CDK5; assay type: protein-complex assay
[6] = target: Mitogen-activated protein kinase 14 (Homo sapiens, UniProt Q16539); experiment: Inhibition of human p38 alpha
[7] = target: Mitogen-activated protein kinase 9 (Homo sapiens, UniProt P45984); experiment: Inhibition of human JNK2
Mitogen-activated protein kinase 9, sequence (P45984 whole entry): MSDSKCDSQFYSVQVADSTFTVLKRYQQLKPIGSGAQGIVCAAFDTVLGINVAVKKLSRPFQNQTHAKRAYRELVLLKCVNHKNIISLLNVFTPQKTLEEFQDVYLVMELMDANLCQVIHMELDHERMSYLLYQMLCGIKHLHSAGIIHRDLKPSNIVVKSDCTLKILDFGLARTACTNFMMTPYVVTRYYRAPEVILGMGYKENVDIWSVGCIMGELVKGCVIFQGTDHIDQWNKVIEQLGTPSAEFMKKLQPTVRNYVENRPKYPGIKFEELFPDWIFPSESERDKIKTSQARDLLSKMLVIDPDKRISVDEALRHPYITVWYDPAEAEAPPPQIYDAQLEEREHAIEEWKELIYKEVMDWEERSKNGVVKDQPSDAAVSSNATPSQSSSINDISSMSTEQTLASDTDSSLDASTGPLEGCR

Mitogen-activated protein kinase 3, sequence (P27361 whole entry): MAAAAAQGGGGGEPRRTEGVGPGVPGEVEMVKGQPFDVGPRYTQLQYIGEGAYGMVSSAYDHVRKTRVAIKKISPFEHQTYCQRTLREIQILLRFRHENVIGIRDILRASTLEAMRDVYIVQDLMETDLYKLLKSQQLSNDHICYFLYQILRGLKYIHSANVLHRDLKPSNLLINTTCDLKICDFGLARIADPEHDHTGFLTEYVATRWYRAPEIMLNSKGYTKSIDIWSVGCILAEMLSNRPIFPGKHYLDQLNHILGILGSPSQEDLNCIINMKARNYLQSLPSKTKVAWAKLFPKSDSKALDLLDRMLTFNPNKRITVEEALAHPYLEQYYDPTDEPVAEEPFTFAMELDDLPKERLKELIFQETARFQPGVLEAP
Mitogen-activated protein kinase 14, sequence (Q16539 whole entry): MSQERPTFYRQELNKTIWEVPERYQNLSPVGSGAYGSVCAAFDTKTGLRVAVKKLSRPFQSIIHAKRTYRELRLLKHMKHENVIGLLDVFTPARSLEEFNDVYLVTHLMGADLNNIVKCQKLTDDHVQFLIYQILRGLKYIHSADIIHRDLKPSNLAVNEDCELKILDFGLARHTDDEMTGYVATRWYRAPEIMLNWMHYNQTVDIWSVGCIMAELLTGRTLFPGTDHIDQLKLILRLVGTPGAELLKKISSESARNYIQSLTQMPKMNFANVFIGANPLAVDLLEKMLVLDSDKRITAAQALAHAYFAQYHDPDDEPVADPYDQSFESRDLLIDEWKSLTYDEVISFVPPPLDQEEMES
T1 sequence (Q00535 whole entry): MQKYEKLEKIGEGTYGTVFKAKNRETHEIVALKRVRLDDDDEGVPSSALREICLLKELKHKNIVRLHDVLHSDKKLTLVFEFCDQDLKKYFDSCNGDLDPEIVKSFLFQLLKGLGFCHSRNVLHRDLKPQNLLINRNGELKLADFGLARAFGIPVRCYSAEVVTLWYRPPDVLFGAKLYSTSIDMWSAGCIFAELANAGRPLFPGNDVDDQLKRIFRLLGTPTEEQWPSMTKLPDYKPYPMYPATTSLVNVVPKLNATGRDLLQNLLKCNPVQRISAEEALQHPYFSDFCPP
T1 sequence (Q15078 whole entry, further chain): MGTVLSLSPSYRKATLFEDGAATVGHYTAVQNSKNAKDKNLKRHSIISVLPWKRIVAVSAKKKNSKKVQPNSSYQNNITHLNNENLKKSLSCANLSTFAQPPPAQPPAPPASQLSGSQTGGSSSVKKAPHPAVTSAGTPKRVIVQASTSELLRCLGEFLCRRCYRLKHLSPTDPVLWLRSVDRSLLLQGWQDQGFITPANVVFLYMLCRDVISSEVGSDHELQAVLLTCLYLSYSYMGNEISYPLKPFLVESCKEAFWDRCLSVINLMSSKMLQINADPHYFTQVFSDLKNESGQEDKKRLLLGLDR

IC50 [1] [nM] | SMILES | also measured
284 | O=C1Nc2cccc(CN3CCOCC3)c2CN1c1csc(-c2ccncc2)n1 | 
79 | O=C1Nc2ccccc2CN1c1csc(-c2ccncc2)n1 | IC50 [2]: > 10000 nM; IC50 [3]: > 10000 nM; IC50 [4]: 142 nM; IC50 [5]: 79 nM; IC50 [6]: > 10000 nM; IC50 [7]: > 10000 nM
362 | COc1cccc2c1CN(c1csc(-c3ccncc3)n1)C(=O)N2 | 
> 10000 | O=C1Nc2ccccc2CN1c1nc(-c2ccncc2)no1 | 
 | CCc1cc(-c2nc(N3Cc4ccccc4NC3=O)cs2)ccn1 | IC50 [5]: 746 nM
113 | O=C1Nc2cc(-c3ccccc3)ccc2CN1c1csc(-c2ccncc2)n1 | 
829 | CN1CCN(c2cccc3c2CN(c2csc(-c4ccncc4)n2)C(=O)N3)CC1 | 
62 | O=C1Nc2cc(CN3CCOCC3)ccc2CN1c1csc(-c2ccncc2)n1 | IC50 [2]: > 10000 nM; IC50 [3]: > 10000 nM; IC50 [4]: 529 nM; IC50 [5]: 62 nM; IC50 [6]: > 10000 nM; IC50 [7]: > 10000 nM
> 10000 | O=C1Nc2ccccc2CN1c1ccc(-c2ccncc2)s1 | 
332 | O=C1Nc2cccc(Cl)c2CN1c1csc(-c2ccncc2)n1 | 
1260 | Cc1cccc2c1CN(c1csc(-c3ccncc3)n1)C(=O)N2 | 
2990 | O=C(Nc1ccccc1)Nc1csc(-c2ccncc2)n1 | 
1160 | CN1CCN(c2ccc3c(c2)CN(c2csc(-c4ccncc4)n2)C(=O)N3)CC1 | 
1160 | O=c1[nH]c2ccccc2n1-c1csc(-c2ccncc2)n1 | 
77 | O=C1Nc2ccccc2CN1c1nc(-c2ccncc2)cs1 | IC50 [5]: 77 nM
> 10000 | O=C1Nc2ccccc2CN1c1cccc(-c2ccncc2)c1 | 
> 10000 | O=c1[nH]c2ccccc2c(=O)n1-c1csc(-c2ccncc2)n1 | 
240 | O=C1Nc2cccc(F)c2CN1c1csc(-c2ccncc2)n1 | 
192 | O=C(Nc1ccccn1)Nc1csc(-c2ccncc2)n1 | 
165 | Cc1ccc2c(c1)CN(c1csc(-c3ccncc3)n1)C(=O)N2 | 
38 | O=C1Nc2cc(Br)ccc2CN1c1csc(-c2ccncc2)n1 | 
 | CN1CCN(c2cccc(NC(=O)Nc3csc(-c4ccncc4)n3)n2)CC1 | IC50 [5]: 15 nM
 | O=C1Nc2ccccc2CN1c1nc(-c2cccnc2)cs1 | IC50 [5]: 399 nM
16 | O=C1Nc2cc(F)ccc2CN1c1csc(-c2ccncc2)n1 | IC50 [2]: > 10000 nM; IC50 [3]: > 10000 nM; IC50 [4]: 52 nM; IC50 [5]: 16 nM; IC50 [6]: > 10000 nM; IC50 [7]: > 10000 nM
 | O=C1Nc2ccccc2CN1c1nc(-c2ccccn2)cs1 | IC50 [5]: 7360 nM
72 | O=C1Nc2ccc(F)cc2CN1c1csc(-c2ccncc2)n1 | 
228 | O=C1Nc2cccc(Br)c2CN1c1csc(-c2ccncc2)n1 | 
616 | O=C1Nc2ccccc2CN1c1nc(-c2ccncc2)ns1 | 
